The IC50 is the concentration needed to halve the response being measured.

The target in one assay is T1, purified human HDAC6 (Homo sapiens, UniProt Q9UBN7).
T1 construct: purchased BPS Bioscience 5006
T1 sequence (Q9UBN7 1-1215): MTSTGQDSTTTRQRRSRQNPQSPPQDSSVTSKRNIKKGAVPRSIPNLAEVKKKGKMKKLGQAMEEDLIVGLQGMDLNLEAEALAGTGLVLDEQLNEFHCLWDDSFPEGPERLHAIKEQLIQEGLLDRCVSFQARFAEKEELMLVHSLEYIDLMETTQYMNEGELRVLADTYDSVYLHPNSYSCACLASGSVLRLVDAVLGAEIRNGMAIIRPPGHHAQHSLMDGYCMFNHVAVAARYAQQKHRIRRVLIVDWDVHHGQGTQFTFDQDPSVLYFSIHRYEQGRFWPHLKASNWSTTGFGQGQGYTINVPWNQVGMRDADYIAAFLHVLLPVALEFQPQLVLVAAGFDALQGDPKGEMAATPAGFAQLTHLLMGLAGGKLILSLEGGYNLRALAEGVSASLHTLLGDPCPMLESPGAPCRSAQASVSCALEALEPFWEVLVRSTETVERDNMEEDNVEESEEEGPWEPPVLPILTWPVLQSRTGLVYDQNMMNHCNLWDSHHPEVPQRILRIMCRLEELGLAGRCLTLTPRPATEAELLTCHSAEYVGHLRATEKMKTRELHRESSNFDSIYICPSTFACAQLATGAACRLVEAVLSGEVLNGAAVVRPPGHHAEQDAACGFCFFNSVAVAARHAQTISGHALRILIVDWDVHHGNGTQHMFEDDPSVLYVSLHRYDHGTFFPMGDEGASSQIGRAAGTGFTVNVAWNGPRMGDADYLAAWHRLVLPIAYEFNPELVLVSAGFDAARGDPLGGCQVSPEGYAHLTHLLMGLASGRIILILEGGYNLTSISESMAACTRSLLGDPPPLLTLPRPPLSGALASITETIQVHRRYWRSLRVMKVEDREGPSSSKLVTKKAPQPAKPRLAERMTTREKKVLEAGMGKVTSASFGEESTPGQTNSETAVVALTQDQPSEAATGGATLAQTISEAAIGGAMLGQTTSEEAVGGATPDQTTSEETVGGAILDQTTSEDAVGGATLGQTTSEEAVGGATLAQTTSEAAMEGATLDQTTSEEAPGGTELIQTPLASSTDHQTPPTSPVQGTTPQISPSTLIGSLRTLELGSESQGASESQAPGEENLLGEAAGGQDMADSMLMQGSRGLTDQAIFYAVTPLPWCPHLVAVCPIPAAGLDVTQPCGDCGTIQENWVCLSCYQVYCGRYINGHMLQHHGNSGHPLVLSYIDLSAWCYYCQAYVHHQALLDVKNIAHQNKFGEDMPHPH
Kind of assay: HDAC6 Enzyme Assay. The format is biochemical. The following applies: bin: greater than 1 μM. As for the experimental part: To measure the inhibition of HDAC6 activity, purified human HDAC6 (BPS Bioscience; Cat. No. 5006) is incubated with substrate Ac-Arg-Gly-Lys(Ac)-AMC peptide (Bachem Biosciences; Cat. No. 1-1925) for 1 hour at 30° C. in the presence of test compounds or vehicle DMSO control. The reaction is stopped with the HDAC inhibitor trichostatin A (Sigma; Cat. No. T8552) and the amount of Arg-Gly-Lys-AMC generated is quantitated by digestion with trypsin (Sigma; Cat. No. T1426) and subsequent measurement of the amount of AMC released using a fluorescent plate reader (Pherastar; BMG Technologies) set at Ex 340 nm and Em 460 nm. Concentration response curves are generated by calculating the fluorescence increase in test compound-treated samples relative to DMSO-treated controls, and enzyme inhibition (IC50) values are determined from those curves.
`CC(C)C(NC(=O)c1cc(C(F)(F)F)ccc1C(F)(F)F)c1ccc(C(=O)NO)cc1` (stereo not shown) [Compound I-155, N-(1-{4-[(hydroxyamino)carbonyl]phenyl}-2-methylpropyl)-2,5-bis(trifluoromethyl)benzamide] had an IC50 of over 1000 nM.
`CC(C)(C)C(NC(=O)C12CC3CC(CC(C3)C1)C2)c1ccc(C(=O)NO)cc1` (stereo not shown) [Compound I-162, N-(1-{4-[(hydroxyamino)carbonyl]phenyl}-2,2-dimethylpropyl)adamantane-1-carboxamide] came in with an IC50 of over 1000 nM.
`CC(NC(=O)c1cccn1C)c1cccc(C(=O)NO)c1` (stereo not shown) [Compound I-263, N-(1-{3-[(hydroxyamino)carbonyl]phenyl}ethyl)-1-methyl-1H-pyrrole-2-carboxamide] showed an IC50 of over 1000 nM.
Molecule `CC(C)[C@H](NC(=O)C12CC3CC(CC(C3)C1)C2)c1ccc(C(=O)NO)cc1` [Compound I-157, N-((1S)-1-{4-[(hydroxyamino)carbonyl]phenyl}-2-methylpropyl)adamantane-1-carboxamide] showed an IC50 of over 1000 nM.
Regarding `Cc1oc(-c2ccccc2)nc1CC(=O)NC(c1ccc(C(=O)NO)cc1)C(C)(C)C` (stereo not shown) [Compound I-80, 4-(2,2-dimethyl-1-{[(5-methyl-2-phenyl-1,3-oxazol-4-yl)acetyl]amino}propyl)-N-hydroxybenzamide], the IC50 is over 1000 nM.
Molecule `CC(NC(=O)CC(C)(C)C)c1ccc(C(=O)NO)cc1` (stereo not shown) [Compound I-144, 4-{1-[(3,3-dimethylbutanoyl)amino]ethyl}-N-hydroxybenzamide] returned an IC50 of over 1000 nM.

The same assay, now with this note: purified human HDAC6, substrate Ac-Arg-Gly-Lys(Ac)-AMC, 1 hour at 30° C.; reported as bins.
For the molecule `CC(NC(=O)Nc1ccc(OC(F)(F)F)cc1)c1ccc(C(=O)NO)cc1` (stereo not shown) [Compound I-141, N-hydroxy-4-{1-[({[4-(trifluoromethoxy)phenyl]amino}carbonyl)amino]ethyl}benzamide], the IC50 is under 100 nM.
The same measure, in the same setting: the result for `Cc1c(C(=O)NC(C)c2ccc(C(=O)NO)cc2)oc2ccccc12` (stereo not shown) [Compound I-7, N-(1-{4-[(hydroxyamino)carbonyl]phenyl}ethyl)-3-methyl-1-benzofuran-2-carboxamide] reads under 100 nM; that for `CC(NC(=O)Nc1ccccc1-c1ccccc1)c1ccc(C(=O)NO)cc1` (stereo not shown) [Compound I-384, 4-(1-{[(biphenyl-2-ylamino)carbonyl]amino}ethyl)-N-hydroxybenzamide], under 100 nM; that for `Cc1c(C(=O)N[C@H](C)c2ccc(C(=O)NO)cc2)sc2ccccc12` [Compound I-12, N-((1R)-1-{4-[(hydroxyamino)carbonyl]phenyl}ethyl)-3-methyl-1-benzothiophene-2-carboxamide], under 100 nM.
Still for that read-out and setting: the result for `C[C@@H](NC(=O)c1cc(Cl)c(Cl)n1C)c1ccc(C(=O)NO)cc1` [Compound I-359, 4,5-dichloro-N-((1R)-1-{4-[(hydroxyamino)carbonyl]phenyl}ethyl)-1-methyl-1H-pyrrole-2-carboxamide] reads under 100 nM; that for `Cc1c(C(=O)N[C@@H](c2ccc(C(=O)NO)cc2)C(C)C)sc2ccccc12` [Compound I-307, N-((1R)-1-{4-[(hydroxyamino)carbonyl]phenyl}-2-methylpropyl)-3-methyl-1-benzothiophene-2-carboxamide], under 100 nM; that for `CCC[C@@H](NC(=O)NC12CC3CC(CC(C3)C1)C2)c1ccc(C(=O)NO)cc1` [Compound I-18, 4-[(1R)-1-({[1-adamantylamino]carbonyl}amino)butyl]-N-hydroxybenzamide], under 100 nM.
The same measure, in the same setting: the result for `CCC[C@@H](NC(=O)c1cccn1C)c1ccc(C(=O)NO)cc1` [Compound I-281, N-((1R)-1-{4-[(hydroxyamino)carbonyl]phenyl}butyl)-1-methyl-1H-pyrrole-2-carboxamide] reads under 100 nM; that for `CC(C)[C@@H](NC(=O)NCCc1ccccc1)c1ccc(C(=O)NO)cc1` [Compound I-522, N-hydroxy-4-[(1R)-2-methyl-1-({[(2-phenylethyl)amino]carbonyl}amino)propyl]benzamide], under 100 nM; that for `CCS(=O)(=O)NC(C)c1ccc(C(=O)NO)cc1` (stereo not shown) [Compound I-1, 4-{1-[(ethylsulfonyl)amino]ethyl}-N-hydroxybenzamide], 100 to 500 nM.

The values are drawn from patent US9382197B2, “Substituted hydroxamic acids and uses thereof” (Millennium Pharmaceuticals, Inc., priority 2010, dated 2016).
